What was measured:
Type in all cases: binding
[1] = target: sperm whale myoglobin (ferrous Mb^II), H64Q mutant (Physeter macrocephalus, UniProt P02185, D123N/H65Q); assay: UV-vis titration
[2] = target: sperm whale myoglobin (ferrous Mb^II), V68A/I107Y mutant (Physeter macrocephalus, UniProt P02185, D123N/I108Y/V69A); assay: UV-vis titration
[3] = target: sperm whale myoglobin (ferric Mb^III), H64A mutant (Physeter macrocephalus, UniProt P02185, D123N/H65A); assay: X-ray crystal structure
[4] = target: sperm whale myoglobin (ferric Mb^III), wild-type (Physeter macrocephalus, UniProt P02185, D123N); assay: UV-vis titration
sperm whale myoglobin (ferric Mb^III), wild-type, sequence (P02185 whole entry D123N): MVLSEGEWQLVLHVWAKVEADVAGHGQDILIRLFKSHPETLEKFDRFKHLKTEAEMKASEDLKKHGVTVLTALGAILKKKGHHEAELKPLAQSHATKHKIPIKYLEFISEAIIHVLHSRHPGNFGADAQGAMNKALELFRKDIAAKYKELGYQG

sperm whale myoglobin (ferrous Mb^II), V68A/I107Y mutant, sequence (P02185 whole entry V69A/I108Y/D123N): as the sequence (P02185 whole entry D123N) above, with V69A, I108Y counted along it
sperm whale myoglobin (ferrous Mb^II), H64Q mutant, sequence (P02185 whole entry H65Q/D123N): as the sequence (P02185 whole entry D123N) above, with H65Q counted along it
sperm whale myoglobin (ferric Mb^III), H64A mutant, sequence (P02185 whole entry H65A/D123N): as the sequence (P02185 whole entry D123N) above, with H65A counted along it

Structure (SMILES): O=NO [nitrite]
- Kd [1]: 1.45 ± 0.3 mM
- Kd [2]: 19.4 ± 0.6 mM
- Kd [3]: > 20 mM
- Kd [4]: 12.2 ± 2.2 mM
